This is an account of results in publication PMC5398486, “Cheminformatics-aided discovery of small-molecule Protein-Protein Interaction (PPI) dual inhibitors of Tumor Necrosis Factor (TNF) and Receptor Activator of NF-κB Ligand (RANKL)” (PLoS Computational Biology, 2017).

Broadly, the IC50 is the point on the concentration scale where inhibition reaches its midpoint. One may read the solubility as the dissolved amount per volume that the medium holds.

One data set can be described thus: BM viability (MTT assay). It counts as cell-based. The conditions noted are these: primary bone marrow cells, M-CSF 25 ng/mL, read-out: LC50 (RANKL complexes, BM viability). The protocol:
BMs were plated on 96-well plates at a density of 10^5 cells/well and treated with T8 and T23 at various concentrations, in the presence of M-CSF (25 ng/mL) for 48 hours. Cell viability was determined by the 3-(4,5-dimethylthiazol-2-yl)-2,5-diphenyltetrazolium bromide (MTT) colorimetric assay, which measures the ability of viable cells to reduce a soluble tetrazolium salt to an insoluble purple formazan precipitate.[63] After removal of the medium, each well was incubated with 0.5 mg/mL MTT (Sigma-Aldrich, St. Louis, MO) in serum-free α-MEM at 37°C for 3 h. At the end of the incubation period, the medium was removed and the intracellular formazan was solubilized with 200 μL DMSO and quantified by reading the absorbance at 550 nm on a microplate reader (Optimax; Molecular Devices, Sunnyvale, CA). Cell viability (%) was expressed as a percentage of the negative control treated without compounds. LC50 values were calculated as mean ± SEM from three independent experiments.

A short description of data set [1]: Measurement of cytotoxicity in L929 cells (crystal violet). The note with it: mouse, compound alone, read-out: L929 LC50. It counts as cell-based. The protocol:
L929 cells were seeded onto a 96-well plate (3x10^4 cells/well). After 24 h, cells were treated with the compounds at increasing concentrations. DMSO was used in the untreated control. The next day, a PBS-washing step was performed to remove dead cells. The remaining live cells were next fixed with methanol and stained with crystal violet. After solubilization with acetic acid, staining was quantified spectrophotometrically at 570 nm. Survival is expressed with respect to the untreated control. Experiments were performed in triplicate.

The target of data set [2] is T1, TNF (Homo sapiens, UniProt P01375). Description: Cross-linking experiments, TNF trimer formation. The note with it: molar ratio of 4:1 relative to TNF, BS3 cross-linking. In kind it is biochemical. Further details: purchased PeproTech. The protocol: (§1) 100 ng of recombinant human TNF or RANKL (Peprotech) were incubated with the inhibitors for 30 min at room temperature and then subjected to cross-linking, using 4.8 mM BS3 (ThermoFisher Scientific) for 30 min at room temperature. The reaction was stopped by adding 1/10th volume of 1 M Tris-HCl, pH 7.5. Samples were then subjected to SDS-PAGE and western blotting using an anti human-TNF or RANKL antibody (both R&D Systems).
(§2) Human TNF or RANKL was incubated with T8 or T23, chemically cross-linked, and subjected to SDS-PAGE. This was followed by western blotting to detect the various TNF and RANKL multimers. Both inhibitors were used at a molar ratio of 4:1 relative to TNF and 1:1 relative to RANKL. Numbers indicate molecular weights in kDa; NC = non cross-linked control (no inhibitor, no cross-linking); CC = cross-linked control (no inhibitor).

Data set [3] has as its target T2, human RANKL (Homo sapiens, UniProt O14788).
T2 sequence (O14788 140-317 limits assumed): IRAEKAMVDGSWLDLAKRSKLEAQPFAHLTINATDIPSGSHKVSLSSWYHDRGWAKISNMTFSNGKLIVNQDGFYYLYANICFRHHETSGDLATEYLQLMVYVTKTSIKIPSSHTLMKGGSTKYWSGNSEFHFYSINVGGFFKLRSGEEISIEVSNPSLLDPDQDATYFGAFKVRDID
Description: RANKL-induced osteoclastogenesis / osteoclastic (TRAP) activity assay in bone marrow cells. It counts as cell-based. The conditions noted are these: 50 ng/ml human RANKL + 25 ng/ml M-CSF, read-out: IC50 (RANKL complexes, TRAP activity).
Description: To visualize osteoclasts, cell cultures were stained with TRAP (tartrate-resistant acid phosphatase), using an acid phosphatase leukocyte (TRAP) kit (Sigma-Aldrich). Osteoclasts were identified as TRAP-positive multinucleated cells containing more than three nuclei.
To measure osteoclast activity, bone marrow cells were cultured for four days as described above and lysed with 0.2% Triton X-100. TRAP activity was measured by the conversion of p-nitrophenyl phosphate to p-nitrophenol in the presence of sodium tartrate. Thus, cell lysates were incubated with 5.5 mM phosphatase substrate diluted in 100 mM citrate buffer and 10 mM sodium tartrate, for 40 minutes at 37°C. The reaction was stopped by addition of 0.4 N sodium hydroxide and absorbance was measured at 405 nm using a microplate reader (Molecular Devices). TRAP activity was normalized to total protein content as determined by the Bradford assay (Bio-Rad protein assay). TRAP activity per μg of total protein was expressed as a percentage of the positive control treated without compounds. IC50 values were calculated as mean ± SEM from three independent experiments performed in duplicate.

For data set [4], the target named is T3, human RANKL (Homo sapiens, UniProt O14788).
T3 construct: purchased Peprotech
T3 sequence (O14788 143-317 limits assumed): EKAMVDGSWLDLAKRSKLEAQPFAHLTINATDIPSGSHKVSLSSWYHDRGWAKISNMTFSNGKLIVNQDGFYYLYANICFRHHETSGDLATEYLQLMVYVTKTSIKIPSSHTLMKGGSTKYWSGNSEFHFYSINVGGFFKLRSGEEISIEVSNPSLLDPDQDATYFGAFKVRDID
Description: Cross-linking experiments, RANKL trimer formation. The conditions noted are these: molar ratio of 1:1 relative to RANKL, BS3 cross-linking. It counts as biochemical. Here is the method:
as §1, §2

Data set [5] in a line: Solubility with PEG3350 as co-solvent. It counts as physicochemical. An excerpt:
PEG3350 was used as co-solvent in order to enhance inhibitors solubility and thus eliminate the possibility of aggregates formation. | column: Solubility (μM)

Data set [6] has as its target T1, TNF. Description: TNF-induced death assay in L929 cells. It counts as cell-based. On the set-up: purchased PeproTech. The note with it: 0.25 ng/mL human TNF + 2 μg/mL actinomycin D, approx. 24 h, read-out: L929 IC50 (inhibition of TNF-induced death). Here is the method:
L929 cells were cultured on 96-well plates (3×10^4 cells/well) overnight. Then, 0.25 ng/mL human TNF (PeproTech) and 2 μg/mL actinomycin D (Sigma–Aldrich) were added. TNF with the compounds were pre-incubated for 30 min at room temperature before adding them to cells to assess inhibition. Background death was estimated using an actinomycin D treated-only control. After approximately 24 h, dead cells were cleared away by washing with PBS. The remaining live cells were then fixed with methanol and stained with crystal violet. After solubilization with acetic acid, staining was quantified spectrophotometrically at 570 nm. Cytotoxicity is expressed with respect to the background death control and also relative to the toxicity of compounds. Experiments were repeated three times.
Biological screening of the compounds examined their capacity to block TNF function in a modified TNF bioactivity assay.[91] The basis of this test is the death-inducing function of TNF in the murine fibrosarcoma cell line L929 following sensitization by the transcription inhibitor actinomycin D. Functional potency of the compounds would translate in a significant reduction of TNF-induced death. Using this approach, out of the nine shortlisted small molecules, two compounds (T8 and T23) were selected as follows. […]

The mark [7] stands for this setting: 2.5% v/v PEG3350 as co-solvent, PEG3350 2.5% v/v.
[8] abbreviates: 5% v/v PEG3350 as co-solvent, aqueous with cosolvent or surfactant or cyclodextrin, PEG3350 5% v/v.

Values after ≈ are worked out from the molar mass of the structure shown. A value given as a limit tells only on which side of the number the result lay.

T1 sequence (P01375 77-233 limits assumed): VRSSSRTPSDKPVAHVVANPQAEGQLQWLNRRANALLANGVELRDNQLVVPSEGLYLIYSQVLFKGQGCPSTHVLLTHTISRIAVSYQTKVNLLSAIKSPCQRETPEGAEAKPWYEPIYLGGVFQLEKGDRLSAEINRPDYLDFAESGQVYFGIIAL

Regarding `O=C(NNC(=NS(=O)(=O)c1ccc(-n2nc(C(F)(F)F)cc2-c2cccs2)cc1)N1CCCC1)c1ccc(Cl)cc1` [Compound T8, N-[(4-chlorobenzoyl)amino]-N'-[4-[5-thiophen-2-yl-3-(trifluoromethyl)pyrazol-1-yl]phenyl]sulfonylpyrrolidine-1-carboximidamide], in “BM viability (MTT assay)”, the CC50 at 48 h was determined as 42.6 ± 4.3 µM. Besides, the CC50 at 1 day in data set [1] was greater than 100 µM. In addition, the “formation of TNF trimers (cross-linking, western blot)” value on TNF [2] is “obstruct the formation of active TNF and RANKL trimers”. Besides, the IC50 was determined as 9 ± 0.7 µM at human RANKL [3] and 40 ± 2.3 µM at TNF [6]. Besides, the “formation of RANKL trimers (cross-linking, western blot)” value on human RANKL [4] is “obstruct the formation of active TNF and RANKL trimers”. The solubility in data set [5] (setting [7]) is 32 µM (≈ 19.9 µg/mL); in data set [5] (setting [8]), 48 µM (≈ 29.9 µg/mL); in data set [5] (PEG3350 0% v/v), less than 1 µM.
`COc1cc(OC(C)=O)c(-c2cc(OC(C)=O)c(OC)cc2OC(C)=O)cc1OC(C)=O` [Compound T23, [4-acetyloxy-2-(2,5-diacetyloxy-4-methoxyphenyl)-5-methoxyphenyl] acetate]: the CC50 at 48 h in the data set “BM viability (MTT assay)” amounted to 5.9 ± 0.3 µM. Moreover, the CC50 at 1 day in data set [1] is greater than 100 µM. In addition, the “formation of TNF trimers (cross-linking, western blot)” value at TNF [2] was “obstruct the formation of active TNF and RANKL trimers”. Also, the IC50 at human RANKL [3] is 2.6 ± 0.2 µM; at TNF [6], 17 ± 1.2 µM. On human RANKL [4], the “formation of RANKL trimers (cross-linking, western blot)” value is “obstruct the formation of active TNF and RANKL trimers”. The solubility in data set [5] (setting [7]) is 88 µM; in data set [5] (setting [8]) it was 117 µM; in data set [5] (PEG3350 0% v/v), 36 µM.
